Experimental data from the supplement of paper PMC5770543.
± gives the standard deviation.

How the values were obtained:
[1] = system: Plasmodium falciparum 3D7; experiment: EC50 growth inhibition (60 h, SYBR Green); conditions: stage: ring-stage start
[2] = system: Toxoplasma gondii RH tachyzoites; experiment: % growth inhibition vs DMSO (48 h luciferase); higher = more inhibition; conditions: 10 µM;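 further: tested in triplicate wells of 96-well plates on confluent HFF monolayers, with 1% DMSO wells as negative control in four replicates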
[3] = system: Plasmodium falciparum 3D7; experiment: % inhibition of schizont-to-ring transition vs DMSO; higher = more inhibition
Outline: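 Schizont-to-ring transition inhibition compares new ring formation with that in vehicle controls. Synchronised P. falciparum schizonts (about 40–42 hours post-invasion, 1% parasitemia, 2.5% hematocrit, AlbuMAX-supplemented RPMI) were exposed to 1, 3 or 10 µM compound, after which rings were counted by Hoechst 33342 flow cytometry across three experiments.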

| Structure (SMILES) | EC50 growth inhibition [1] [nM] | % growth inhibition [2] [%] | % inhibition of schizont-to-ring transition ([3]; 1 µM) [%] | % inhibition of schizont-to-ring transition ([3]; 3 µM) [%] | % inhibition of schizont-to-ring transition ([3]; 10 µM) [%] |
| --- | --- | --- | --- | --- | --- |
| COc1cc2cc(C(=O)Nc3ccccc3)c(N)nc2cc1OC | 847 | 78.1 ± 1.2 | 8.51 | 35.6 | 57.9 |
| Cc1ccc(-c2cc3c(nn2)-c2ccccc2C3=O)cc1 | 214 | < 0 | 33.1 | 51.8 | 59.3 |
| CCN(CC)CCNc1ccnc2cc(Cl)ccc12 | 21.1 | 45.2 ± 3.8 | 73.3 | 75.3 | 77.3 |
| Cc1nc2ccccc2c(O)c1CC=C(Cl)Cl | 4560 | 79.46 ± 0.64 | 10.8 | 31.3 | 67.4 |
| COc1cccc(C=Cc2nc(=O)c3ccccc3o2)c1OC | 317 | 70.48 ± 0.68 | 34.9 | 40.3 | 49.7 |
| N=c1c2ccccc2nnn1-c1cccc(C(F)(F)F)c1 | 5760 | 64.1 ± 4.6 | 44.5 | 48.1 | 54.3 |
| CCOc1ccc(Nc2ccnc3cc(Cl)ccc23)cc1 | 3740 | 64.1 ± 7.2 | 23.3 | 27.2 | 30 |
| Cc1ccc(Cn2c(N3CCC(C(=O)NCc4cccs4)CC3)nc3ccccc32)cc1 | 744 | 66.1 ± 3.6 | 47.3 | 68 | 69.8 |
| Fc1ccc2[nH]c3c(NCCCN4CCOCC4)ncnc3c2c1 | 466 | 34.5 ± 17 | 3.9 | 32.7 | 53.9 |
| O=C(CCl)NCCOc1ccc(Cl)cc1Cl | 717 | 66.2 ± 5.8 | 12.1 | 24.7 | 43.1 |
| O=C1CC(O)(C(F)(F)C(F)(F)F)Oc2ccccc21 (centres undefined) | 3000 | 65.3 ± 2.5 | 5.46 | 15.3 | 47.7 |
| COc1ccc(C(C)=O)cc1N1C(=O)C2C(C1=O)C1(c3ccccc3)C(=O)C2(c2ccccc2)C(c2ccc(C)cc2)=C1c1ccc(C)cc1 (centres undefined) | 273 | 79.2 ± 1.3 | 7.25 | 20.5 | 44.9 |
| COc1ccc(-c2nc(NC(=O)CS(=O)(=O)c3ccc(F)cc3)sc2C)cc1 | 405 | 69.4 ± 1.6 | 9.86 | 32.3 | 43.6 |
| O=C(Nc1ccc(-c2nc3cc4ccccc4cc3[nH]2)cc1)c1cccc(Br)c1 | 4310 | 50.3 ± 8.7 | 10.2 | 38.5 | 61.9 |
| N#Cc1nc(Cc2cccc3ccccc23)oc1N1CCN(C(c2ccccc2)c2ccccc2)CC1 | 5260 | 44.8 ± 8.8 | 21.5 | 27.3 | 52.8 |
| O=C(Nc1ccc(-c2nc3cc(NC(=O)c4ccc(Cl)cc4)ccc3[nH]2)cc1)c1ccc(Cl)cc1 |  | 21.6 ± 3 | < 0 | 18.9 | 41.1 |
| COc1ccc(C=C2SC(=N)N(c3ccccc3OC)C2=O)cc1 | 1370 | 58.7 ± 3.4 | 19.9 | 35.6 | 49.7 |
| CCCc1c(C)nc2ccc(Br)cc2c1O | 4280 | 39.6 ± 25 | 17 | 24 | 44.8 |
| COC(=O)c1ccc(Cl)c2c1C1C=CCC1C(c1cccc3ccccc13)N2 (centres undefined) | 6220 | 55.6 ± 32 | 8.04 | 15 | 46.6 |
